Data published in patent publication US20060234919A1, “Use” (priority 2001, published 2006).

Tests used:
[1] = test system: ischaemic musculocutaneous skin flaps; conditions: antagonist 1 mg/kg s.c.; previously shown by the inventors; cited from earlier work
[2] = test system: carrageenan induced edema; experiment: carrageenan induced edema of the rat hindpaw (plethysmometer); assay type: in vivo; conditions: for carrageenan induced edema, percentage increase in hindpaw volume: 10 mg/kg i.m.
Procedure: Male Sprague-Dawley rats (260-300 g for s.c. injected and 340-380 g for i.c.v. injected) were used (B&K Universal A B, Sollentuna, Sweden). The animals arrived at least one week before experiments and were housed three-four per cage (except animals provided with i.c.v. cannulas that were housed individually) with free access to food (R36, Ewos, Södertälje, Sweden) and water. The light schedule was a 12/12 h light/dark cycle, and ambient temperature was 20±2° C.
Oxytocin and the oxytocin antagonist (1-deamino-2-D-Tyr-(OEt)-4-Thr-8-Orn-oxytocin) (Ferring, Malmö, Sweden) were dissolved in physiological saline and injected in a volume of 1 ml/kg s.c. in the dorsal neck. Dexamethasone (Decadron®, Merck, Sharp & Dome, USA) was administered intramuscularly (i.m.). Oxytocin given i.c.v. was dissolved in a volume of 5 μl physiological saline and slowly injected over a period of 1 minute through the i.c.v. guide cannula via a 25 G stain-less-steel injection needle connected to a 10 μl Hamilton syringe via a polyethylene tube. Controls received saline in the same amounts.
The model of inflammation used, the carrageenan induced edema, is a commonly used model for studies of inflammation and for testing novel anti-inflammatory drugs (Winter C A, Risley E A, Nuss G W. Carrageenan-induced edema in hind paw of the rat as an assay for anti-inflammatory drugs. Proc Soc Exp Biol Med 1962; 111:544-7). To produce acute inflammation, carrageenan, 2 mg in 0.1 ml saline, was injected s.c. into the plantar region of the rat right hindpaw.
The rats were treated s.c. with oxytocin (1.0, 10, 100 or 1000 μg/kg (n=8 in each group) or saline (n=8+8) immediately before the carrageenan injection. The edema of the right hindpaw was measured (volume in ml) using a plethysmometer (Ugo Basile, type 7150, Florence, Italy) before treatment, half an hour after, one hour after, and then every hour up to 6 or 10 hours after treatment.
The results are presented as means±SD. Statistical analysis was performed by means of a 1-way ANOVA, followed by Fisher's test for post-hoc comparisons. In the analysis of myeloperoxidase accumulation, a Student's t-test was used. P-values of 0.05 or less were regarded as statistically significant.
The rats were treated s.c. with oxytocin (1000 μg/kg) and the oxytocin antagonist (1000 μg/kg) (the antagonist was given 30 minutes before oxytocin) (n=8), the oxytocin antagonist alone (1000 μg/kg) (n=8) or saline (n=8) immediately before the carrageenan injection. Measurements as in Example 1.
The rats were treated i.c.v. with oxytocin (1.0 μg/kg) (n=6) or saline (n=7) immediately before the carrageenan injection. Measurements as in Example 1. The animals were anaesthetised with sodiumpentobarbital (50 mg/kg) (Apoteksbolaget, Sweden) injected intraperitoneally (i.p.). The scull was uncovered, a hole was drilled in the right parietal bone and a guide cannula (21 G) was fixed stereotactically to the scull by means of acrylic dental cement. The coordinates were 1.00 mm posterior and 1.30 mm lateral to the bregma. […] The injection needles (25 G) reached 3.80 mm below the dura mater, with the tip of the needle in the right lateral ventricle. The animals were allowed one week of recovery after the operation. At the end of the experiment, the placement of the guide cannula was checked by injection of 2 μl of toluidine blue.
The rats were treated i.m. with dexamethasone (10 mg/kg) (n=6) or saline (n=6) immediately before the carrageenan injection. The edema of the right hindpaw was measured using the plethysmometer before treatment, and at 2, 4 and 6 hours after treatment.

Compound | antagonism of the oxytocin (1 mg/kg s.c.) effect on skin flap survival [1] | abolition of the oxytocin (1000 μg/kg s.c.) induced effect on carrageenan induced edema ([2]; antagonist 1000 μg/kg s.c. 30 minutes before oxytocin) | effect on carrageenan induced edema ([2]; antagonist 1000 μg/kg s.c. administered alone) | carrageenan induced edema, percentage increase in hindpaw volume ([2]; 2 hours, saline 48±10%, p<0.05) | carrageenan induced edema, percentage increase in hindpaw volume ([2]; 4 hours, saline 78±12%, p<0.05) | carrageenan induced edema, percentage increase in hindpaw volume ([2]; 6 hours, saline 105±11%, p<0.01)
1-deamino-2-D-Tyr-(OEt)-4-Thr-8-Orn-oxytocin [oxytocin antagonist] | abolished | did not abolish | did not induce any effect | – | – | –
C[C@@H]1C[C@H]2[C@@H]3CCC4=CC(=O)C=C[C@]4(C)[C@@]3(F)[C@@H](O)C[C@]2(C)[C@@]1(O)C(=O)CO [Dexamethasone] | – | – | – | 35±9.3% | 54±14% | 71±15%
